Results taken from patent US7897602B2, “Indolinone compounds as kinase inhibitors” (Development Center for Biotechnology, priority 2009, dated 2011).

Tests used:
Format in all cases: biochemical
[1] = biological target: T1, c-Met kinase (Homo sapiens, UniProt P08581); test: c-Met kinase assay (33P incorporation into Poly(Glu-Tyr)); details: 500 nM test compound
T1 construct: recombinant N-terminal 6×His-tagged c-Met kinase domain construct expressed from baculovirus; 6xHis (N); made in house
Procedure: Inhibition of c-Met kinase activity by compounds disclosed herein was quantified by measuring the amount of [^33P] incorporated into the substrate in the presence of a test compound. Briefly, a reaction mixture of 25 μL final volume containing 5 ng of c-Met kinase (obtained by purifying recombinant N-terminal 6×His-tagged c-Met kinase domain construct expressed from baculovirus), 1 μg of the substrate (Poly (Glu-Tyr, 4:1, Sigma)), kinase reaction buffer (20 mM MOPS pH 7.0, 1 mM EDTA, 5% glycerol, 0.01% Brij-35, 0.1% β-mercaptoethanol, 1 mg/mL BSA, 100 μM ATP, 0.1 μCi per well [^33P]-γ-ATP (2,500-3,000 Ci/mmol)), and a test compound (500 nM, diluted with 4% DMSO) or DMSO (as the control) was incubated at 30° C. for 30 minutes. The reaction was stopped by adding 5 μL of 3% phosphoric acid solution. The resultant reaction solution was then harvested onto a filter plate (UniFilter-96 GF/B, PerkinElmer), washed 20 times for 5 min with d.d. H2O, and followed by the addition of 30 μL of MicroScint™-20 Cocktail (PerkinElmer). The plate was then sealed and counted using a TopCount scintillation detector (PerkinElmer). The percentage of inhibition rate of the test compound was calculated by dividing the retained radioactivity of the test sample with the retained radioactivity of the control sample and shown in Table 3.

[2] = biological target: T2, Aurora B kinase (Homo sapiens, UniProt Q96GD4); test: Aurora B kinase assay ([γ-33P]ATP, CHOCKtide substrate); details: for inhibition at 1 µM: 1.0 μM test compound
T2 construct: purchased Cell signaling
T2 sequence (Q96GD4 whole entry): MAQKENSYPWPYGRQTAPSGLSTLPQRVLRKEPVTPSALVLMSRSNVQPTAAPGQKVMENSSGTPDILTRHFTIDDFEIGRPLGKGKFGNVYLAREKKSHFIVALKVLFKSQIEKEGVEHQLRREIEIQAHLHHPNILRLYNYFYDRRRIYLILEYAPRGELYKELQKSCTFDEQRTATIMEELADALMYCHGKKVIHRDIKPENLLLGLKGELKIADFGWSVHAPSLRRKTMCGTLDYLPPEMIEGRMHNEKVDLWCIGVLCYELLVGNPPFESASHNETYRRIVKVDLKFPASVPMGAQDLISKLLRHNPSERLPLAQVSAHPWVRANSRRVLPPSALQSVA
Procedure: (§1) Inhibition of Aurora Kinase by the compounds disclosed herein was determined by incubating Aurora kinase, substrate, and a test compound together for a period of time followed by quantifying the resultant phosphorylated product. Specifically, in a well of a 96-well round bottom plate, 25 μL of a reaction mixture containing (1) a test compound disclosed herein (diluted from 9 μM to the desired final concentration), [γ-33P]ATP/ATP mix (10 μM), CHOCKtide (1 μg, Genesis Biotech Inc.), and Aurora-A (1 ng, purchased from Upstate); or (2) a test compound disclosed herein (diluted from 9 μM to the desired final concentration), [γ-33P]ATP/ATP mix (40 μM), CHOCKtide (1 μg, Genesis Biotech Inc.), and Aurora-B (2.5 ng, purchased from Cell signaling); was prepared and incubated at 33° C. for 30 minutes. The reaction was then stopped by adding 5 μL of 3% phosphoric acid. The resultant solution (30 μL) was later harvested by a UniFilter Plate GF/B (PerkinElmer) followed by adding 30 μL of the scintillation cocktail (MicroScint 20, PerkinElmer) to the well. The radioactivity retained on the filter membrane was measured by a luminescence counter (PerkinElmer). IC50 value is defined as the concentration of the test compound which achieves a half-maximal inhibition of the kinase activity.

[3] = biological target: T3, Aurora A kinase (Homo sapiens, UniProt O14965); test: Aurora A kinase assay ([γ-33P]ATP, CHOCKtide substrate); details: for inhibition at 1 µM: 1.0 μM test compound
T3 construct: purchased Upstate
T3 sequence (O14965 1-403): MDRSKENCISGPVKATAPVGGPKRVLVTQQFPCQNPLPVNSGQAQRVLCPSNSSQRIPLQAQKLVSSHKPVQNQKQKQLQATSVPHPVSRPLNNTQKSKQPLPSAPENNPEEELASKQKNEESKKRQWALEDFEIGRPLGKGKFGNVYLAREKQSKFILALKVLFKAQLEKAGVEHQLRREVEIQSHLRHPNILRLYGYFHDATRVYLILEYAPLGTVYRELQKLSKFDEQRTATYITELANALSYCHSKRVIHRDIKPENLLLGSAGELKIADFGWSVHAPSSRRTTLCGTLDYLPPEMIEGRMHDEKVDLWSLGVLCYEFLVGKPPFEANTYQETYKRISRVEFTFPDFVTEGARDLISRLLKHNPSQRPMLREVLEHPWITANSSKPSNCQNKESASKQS
Procedure: as §1

T1 sequence (P08581 1078-1345 limits assumed): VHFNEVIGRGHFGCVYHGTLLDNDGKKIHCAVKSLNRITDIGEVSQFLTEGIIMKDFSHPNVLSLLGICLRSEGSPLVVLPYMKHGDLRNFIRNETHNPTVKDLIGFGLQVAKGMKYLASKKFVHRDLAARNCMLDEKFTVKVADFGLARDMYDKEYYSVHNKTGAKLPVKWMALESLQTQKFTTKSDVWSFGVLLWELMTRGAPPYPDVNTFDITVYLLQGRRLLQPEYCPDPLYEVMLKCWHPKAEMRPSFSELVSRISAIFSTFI

| Compound | inhibition at 0.5 µM [1] | inhibition at 1 µM [2] | inhibition at 1 µM [3] | IC50 [2] | IC50 [3] |
| --- | --- | --- | --- | --- | --- |
| CCOC(=O)CCc1c(/C=C2\C(=O)Nc3ccc(NCc4ccc(F)cc4)cc32)[nH]c2c1C(=O)CCC2 [DCB-70176, (Z)-ethyl 3-(2-((5-(4-fluorobenzylamino)-2-oxoindolin-3-ylidene)methyl)-4-oxo-4,5,6,7-tetrahydro-1H-indol-3-yl)propanoate] | 10.1% | 15.2% | 52.3% |  |  |
| CCOC(=O)CCc1c(/C=C2\C(=O)Nc3ccc(/N=C/c4ccncc4)cc32)[nH]c2c1C(=O)CCC2 [DCB-70177, ethyl 3-(4-oxo-2-((Z)-(2-oxo-5-((E)-pyridin-4-ylmethyleneamino)indolin-3-ylidene)methyl)-4,5,6,7-tetrahydro-1H-indol-3-yl)propanoate] | 18.8% | 22.5% | 81.6% |  |  |
| CCOC(=O)CCc1c(/C=C2\C(=O)Nc3ccc(/N=C/c4ccc(F)c(C(F)(F)F)c4)cc32)[nH]c2c1C(=O)CCC2 [DCB-70178, ethyl 3-(2-((Z)-(5-((E)-4-fluoro-3-(trifluoromethyl)benzylideneamino)-2-oxoindolin-3-ylidene)methyl)-4-oxo-4,5,6,7-tetrahydro-1H-indol-3-yl)propanoate] | 7.8% | 1.9% | 31.2% |  |  |
| CCOC(=O)CCc1c(/C=C2\C(=O)Nc3ccc(NC(C)c4ccccc4)cc32)[nH]c2c1C(=O)CCC2 (centres unmarked) [DCB-70179, (Z)-ethyl 3-(4-oxo-2-((2-oxo-5-(1-phenylethylamino)indolin-3-ylidene)methyl)-4,5,6,7-tetrahydro-1H-indol-3-yl)propanoate] | 17.9% | 40.1% | 59.9% |  |  |
| CCOC(=O)CCc1c(/C=C2\C(=O)Nc3ccc(/N=C/c4ccsc4)cc32)[nH]c2c1C(=O)CCC2 [DCB-70180, ethyl 3-(4-oxo-2-((Z)-(2-oxo-5-((E)-thiophen-3-ylmethyleneamino)indolin-3-ylidene)methyl)-4,5,6,7-tetrahydro-1H-indol-3-yl)propanoate] | 5.1% | 47.4% | 71.5% | 866 nM |  |
| CCOC(=O)CCc1c(/C=C2\C(=O)Nc3ccc(NC(=O)Nc4ccc(F)cc4F)cc32)[nH]c2c1C(=O)CCC2 [DCB-70183, (Z)-ethyl 3-(2-((5-(3-(2,4-difluorophenyl)ureido)-2-oxoindolin-3-ylidene)methyl)-4-oxo-4,5,6,7-tetrahydro-1H-indol-3-yl)propanoate] | 1.5% | 13.9% | 13.2% |  |  |
| CCOC(=O)CCc1c(/C=C2\C(=O)Nc3ccc(NC(=O)Nc4ccc(Cl)cc4Cl)cc32)[nH]c2c1C(=O)CCC2 [DCB-70184, (Z)-ethyl 3-(2-((5-(3-(2,4-dichlorophenyl)ureido)-2-oxoindolin-3-ylidene)methyl)-4-oxo-4,5,6,7-tetrahydro-1H-indol-3-yl)propanoate] | 8.7% | 6.8% | 6.6% |  |  |

Continued, values first:

| inhibition at 0.5 µM [1] | inhibition at 1 µM [2] | inhibition at 1 µM [3] | IC50 [2] | IC50 [3] | Compound |
| --- | --- | --- | --- | --- | --- |
| 9.6% | 47.4% | 66.1% |  |  | Nc1ccccc1NC(=O)CCc1c(/C=C2\C(=O)Nc3ccc(NS(=O)(=O)c4ccccc4)cc32)[nH]c2c1C(=O)CCC2 [DCB-70186, (Z)-N-(2-aminophenyl)-3-(4-oxo-2-((2-oxo-5-(phenylsulfonamido)indolin-3-ylidene)methyl)-4,5,6,7-tetrahydro-1H-indol-3-yl)propanamide] |
| 8.8% | 17.5% | 62.8% |  |  | CC(=O)c1c(C)[nH]c(/C=C2\C(=O)Nc3ccc(F)cc32)c1CCC(=O)O [DCB-70187, (Z)-3-(4-acetyl-2-((5-fluoro-2-oxoindolin-3-ylidene)methyl)-5-methyl-1H-pyrrol-3-yl)propanoic acid] |
| 51.1% | 53.2% | 95.5% | 759 nM | 31.7 nM | CC(=O)c1c(C)[nH]c(/C=C2\C(=O)Nc3ccc(S(=O)(=O)N4CCc5ccccc54)cc32)c1CCC(=O)O [DCB-70188, (Z)-3-(4-acetyl-2-((5-(indolin-1-ylsulfonyl)-2-oxoindolin-3-ylidene)methyl)-5-methyl-1H-pyrrol-3-yl)propanoic acid] |
| 14% | 84% | 91.4% | 177 nM | 77.9 nM | CCOC(=O)CCc1c(/C=C2\C(=O)Nc3ccc(NS(=O)(=O)c4cc(F)cc(F)c4)cc32)[nH]c2c1C(=O)CCC2 [DCB-70189, (Z)-ethyl 3-(2-((5-(3,5-difluorophenylsulfonamido)-2-oxoindolin-3-ylidene)methyl)-4-oxo-4,5,6,7-tetrahydro-1H-indol-3-yl)propanoate] |
| 10% | 80% | 97% | 246 nM | 31.5 nM | O=C(O)CCc1c(/C=C2\C(=O)Nc3ccc(NS(=O)(=O)c4cc(F)cc(F)c4)cc32)[nH]c2c1C(=O)CCC2 [DCB-70190, (Z)-3-(2-((5-(3,5-difluorophenylsulfonamido)-2-oxoindolin-3-ylidene)methyl)-4-oxo-4,5,6,7-tetrahydro-1H-indol-3-yl)propanoic acid] |
| 19% | 21.2% | 20.4% |  |  | CCOC(=O)CCc1c(/C=C2\C(=O)Nc3ccc(NS(=O)(=O)c4ccc5ccccc5c4)cc32)[nH]c2c1C(=O)CCC2 [DCB-70191, (Z)-ethyl 3-(2-((5-(naphthalene-2-sulfonamido)-2-oxoindolin-3-ylidene)methyl)-4-oxo-4,5,6,7-tetrahydro-1H-indol-3-yl)propanoate] |
| 9.9% | 21% | 40.6% |  |  | O=C(O)CCc1c(/C=C2\C(=O)Nc3ccc(NS(=O)(=O)c4ccc5ccccc5c4)cc32)[nH]c2c1C(=O)CCC2 [DCB-70192, (Z)-3-(2-((5-(naphthalene-2-sulfonamido)-2-oxoindolin-3-ylidene)methyl)-4-oxo-4,5,6,7-tetrahydro-1H-indol-3-yl)propanoic acid] |
| 11.2% | 36.7% | 74.3% |  |  | CCOC(=O)CCc1c(/C=C2\C(=O)Nc3ccc(NS(=O)(=O)c4cc(Cl)cc(Cl)c4)cc32)[nH]c2c1C(=O)CCC2 [DCB-70193, (Z)-ethyl 3-(2-((5-(3,5-dichlorophenylsulfonamido)-2-oxoindolin-3-ylidene)methyl)-4-oxo-4,5,6,7-tetrahydro-1H-indol-3-yl)propanoate] |
| 12.9% | 41.7% | 85.3% |  | 151 nM | O=C(O)CCc1c(/C=C2\C(=O)Nc3ccc(NS(=O)(=O)c4cc(Cl)cc(Cl)c4)cc32)[nH]c2c1C(=O)CCC2 [DCB-70194, (Z)-3-(2-((5-(3,5-dichlorophenylsulfonamido)-2-oxoindolin-3-ylidene)methyl)-4-oxo-4,5,6,7-tetrahydro-1H-indol-3-yl)propanoic acid] |
| 15.3% | 47.5% | 73.1% |  |  | CCOC(=O)CCc1c(/C=C2\C(=O)Nc3ccc(NS(=O)(=O)c4cccc(OC)c4)cc32)[nH]c2c1C(=O)CCC2 [DCB-70195, (Z)-ethyl 3-(2-((5-(3-methoxyphenylsulfonamido)-2-oxoindolin-3-ylidene)methyl)-4-oxo-4,5,6,7-tetrahydro-1H-indol-3-yl)propanoate] |
